Results on 1 compound are retold here after ChEMBL document CHEMBL1909046, “DrugMatrix in vitro pharmacology data”.

One test deals with Vasopressin V1a receptor (Homo sapiens, UniProt P37288).
Vasopressin V1a receptor, sequence (P37288 whole entry): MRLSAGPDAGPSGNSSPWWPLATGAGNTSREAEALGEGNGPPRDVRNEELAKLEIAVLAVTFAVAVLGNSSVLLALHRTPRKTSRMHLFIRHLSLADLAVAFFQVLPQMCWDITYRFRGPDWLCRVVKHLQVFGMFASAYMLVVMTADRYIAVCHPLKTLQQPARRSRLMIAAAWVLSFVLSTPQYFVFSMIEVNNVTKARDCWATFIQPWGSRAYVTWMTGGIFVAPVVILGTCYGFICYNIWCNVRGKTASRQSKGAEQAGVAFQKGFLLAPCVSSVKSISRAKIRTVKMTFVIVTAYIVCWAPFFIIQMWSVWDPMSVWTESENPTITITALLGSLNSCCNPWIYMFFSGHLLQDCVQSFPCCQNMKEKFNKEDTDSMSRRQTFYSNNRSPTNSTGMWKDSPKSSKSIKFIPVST
Assay: not given
The format is cell membranes, Membrane. The settings on record: hek293.
Take `CN[C@@H]1[C@@H](O)[C@@H](O[C@@H]2[C@@H](O)[C@H](O[C@H]3OC(CN)=CC[C@H]3N)[C@@H](N)C[C@H]2N)OC[C@]1(C)O` [SISOMICIN]: the IC50 entry is reported as “Not Active”.

Another test deals with T1, C-C chemokine receptor type 4 (Homo sapiens, UniProt P51679).
T1 sequence (P51679 whole entry): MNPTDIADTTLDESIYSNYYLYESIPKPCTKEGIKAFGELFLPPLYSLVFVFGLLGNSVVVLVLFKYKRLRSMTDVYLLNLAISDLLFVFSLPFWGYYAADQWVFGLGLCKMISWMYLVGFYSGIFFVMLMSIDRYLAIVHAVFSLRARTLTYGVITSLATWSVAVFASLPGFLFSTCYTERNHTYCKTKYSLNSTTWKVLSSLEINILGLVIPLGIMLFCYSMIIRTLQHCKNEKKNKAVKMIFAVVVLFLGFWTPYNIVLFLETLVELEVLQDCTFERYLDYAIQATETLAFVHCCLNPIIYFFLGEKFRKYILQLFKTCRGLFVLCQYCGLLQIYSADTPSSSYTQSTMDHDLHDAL
Assay: not given
The format is cell membranes, Membrane. The settings on record: chem-1.
Turning to `CN[C@@H]1[C@@H](O)[C@@H](O[C@@H]2[C@@H](O)[C@H](O[C@H]3OC(CN)=CC[C@H]3N)[C@@H](N)C[C@H]2N)OC[C@]1(C)O` [SISOMICIN], the IC50 entry is reported as “Not Active”.

A further test has as its target T2, C-X-C chemokine receptor type 2 (Homo sapiens, UniProt P25025). Further: in other assays of this panel Not Active means under 50% inhibition at 10 µM.
T2 sequence (P25025 whole entry): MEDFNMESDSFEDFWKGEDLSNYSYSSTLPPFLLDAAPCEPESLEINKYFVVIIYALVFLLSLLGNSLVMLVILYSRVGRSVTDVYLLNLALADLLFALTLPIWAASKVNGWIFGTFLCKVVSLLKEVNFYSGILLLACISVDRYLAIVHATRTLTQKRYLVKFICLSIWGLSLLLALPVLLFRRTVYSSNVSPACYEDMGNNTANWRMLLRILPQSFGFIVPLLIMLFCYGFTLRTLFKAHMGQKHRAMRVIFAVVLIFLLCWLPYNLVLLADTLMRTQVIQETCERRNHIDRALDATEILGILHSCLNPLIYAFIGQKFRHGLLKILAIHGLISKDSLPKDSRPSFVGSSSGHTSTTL
Assay: not given
The format is cell membranes, Membrane. The following applies: cho-k1.
As for `CN[C@@H]1[C@@H](O)[C@@H](O[C@@H]2[C@@H](O)[C@H](O[C@H]3OC(CN)=CC[C@H]3N)[C@@H](N)C[C@H]2N)OC[C@]1(C)O` [SISOMICIN], the IC50 entry was “Not Active”.

Test system in another test: not listed separately
Briefly: DRUGMATRIX: Glutamate, NMDA, Agonism radioligand binding (ligand: [3H] CGP-39653). The format is cell membranes, Rattus norvegicus, Wistar, Cerebral cortex, Membrane. The settings on record: Not Active = under 50% inhibition at 10 µM.
Consider `CN[C@@H]1[C@@H](O)[C@@H](O[C@@H]2[C@@H](O)[C@H](O[C@H]3OC(CN)=CC[C@H]3N)[C@@H](N)C[C@H]2N)OC[C@]1(C)O` [SISOMICIN], for which the IC50 result was “Not Active” and the Ki result is on record as “Not Active”.

Test system in another test: not listed separately
Briefly: DRUGMATRIX: Glutamate, NMDA, Phencyclidine radioligand binding (ligand: [3H] TCP). The format is cell membranes, Rattus norvegicus, Wistar, Cerebral cortex, Membrane. The settings on record: Not Active = under 50% inhibition at 10 µM.
Consider `CN[C@@H]1[C@@H](O)[C@@H](O[C@@H]2[C@@H](O)[C@H](O[C@H]3OC(CN)=CC[C@H]3N)[C@@H](N)C[C@H]2N)OC[C@]1(C)O` [SISOMICIN], for which the IC50 result is “Not Active” and the Ki entry is recorded as “Not Active”.

In the next test the target is T3, Leukotriene C4 synthase (Cavia porcellus, UniProt A6XA80).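 Further: enzyme inhibition assay of leukotriene C4 synthase, using LTA4 as the substrate; in other assays of this panel Not Active means under 50% inhibition at 10 µM.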
T3 sequence (A6XA80 whole entry): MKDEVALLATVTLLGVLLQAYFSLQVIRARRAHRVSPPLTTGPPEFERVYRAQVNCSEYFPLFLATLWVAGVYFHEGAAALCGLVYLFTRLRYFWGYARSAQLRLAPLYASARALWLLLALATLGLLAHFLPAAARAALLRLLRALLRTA
Briefly: biochemical. The format is tissue-based, Lung.
Settings: not given
Take `CN[C@@H]1[C@@H](O)[C@@H](O[C@@H]2[C@@H](O)[C@H](O[C@H]3OC(CN)=CC[C@H]3N)[C@@H](N)C[C@H]2N)OC[C@]1(C)O` [SISOMICIN]: the IC50 entry is on record as “Not Active”.

A further test concerns the target T4, Cysteinyl leukotriene receptor 1 (Homo sapiens, UniProt Q9Y271). Further: in other assays of this panel Not Active means under 50% inhibition at 10 µM.
T4 sequence (Q9Y271 whole entry): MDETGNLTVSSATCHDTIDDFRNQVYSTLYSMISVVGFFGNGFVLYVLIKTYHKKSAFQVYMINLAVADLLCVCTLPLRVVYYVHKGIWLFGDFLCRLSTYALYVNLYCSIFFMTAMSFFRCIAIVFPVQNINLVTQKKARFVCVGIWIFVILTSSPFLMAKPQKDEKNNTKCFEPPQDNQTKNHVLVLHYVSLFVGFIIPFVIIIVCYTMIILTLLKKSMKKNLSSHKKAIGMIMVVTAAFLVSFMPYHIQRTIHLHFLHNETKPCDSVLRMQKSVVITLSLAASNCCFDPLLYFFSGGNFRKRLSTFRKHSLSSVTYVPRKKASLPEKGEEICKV
Assay: not given
The format is cell membranes, CHO-K1, Membrane. The following applies: cho-k1.
As to `CN[C@@H]1[C@@H](O)[C@@H](O[C@@H]2[C@@H](O)[C@H](O[C@H]3OC(CN)=CC[C@H]3N)[C@@H](N)C[C@H]2N)OC[C@]1(C)O` [SISOMICIN], the IC50 result is “Not Active”.

For the next test, the target named is T5, Neuropeptide Y receptor type 1 (Homo sapiens, UniProt P25929). Further: in other assays of this panel Not Active means under 50% inhibition at 10 µM.
T5 sequence (P25929 whole entry): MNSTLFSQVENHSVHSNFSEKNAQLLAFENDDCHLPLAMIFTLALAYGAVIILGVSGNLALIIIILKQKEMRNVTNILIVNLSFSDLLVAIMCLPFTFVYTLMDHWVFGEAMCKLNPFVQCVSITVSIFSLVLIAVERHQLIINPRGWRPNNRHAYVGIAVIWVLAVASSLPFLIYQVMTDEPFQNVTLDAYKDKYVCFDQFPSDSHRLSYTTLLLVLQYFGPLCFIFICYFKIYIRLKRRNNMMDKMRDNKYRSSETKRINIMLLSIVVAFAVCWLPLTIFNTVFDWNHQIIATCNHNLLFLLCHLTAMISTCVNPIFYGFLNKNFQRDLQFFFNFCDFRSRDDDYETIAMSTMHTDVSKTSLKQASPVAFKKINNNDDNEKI
Assay: not given
The format is cell membranes, Membrane. The settings on record: sk-n-mc.
Regarding `CN[C@@H]1[C@@H](O)[C@@H](O[C@@H]2[C@@H](O)[C@H](O[C@H]3OC(CN)=CC[C@H]3N)[C@@H](N)C[C@H]2N)OC[C@]1(C)O` [SISOMICIN], the IC50 entry was “Not Active”.

Test system in the next test: not listed separately
The test can be described thus: DRUGMATRIX: Phorbol Ester radioligand binding (ligand: [3H] PDBu). The format is cell membranes, Mus musculus, ICR, Brain, Membrane. The following applies: Not Active = under 50% inhibition at 10 µM.
On to `CN[C@@H]1[C@@H](O)[C@@H](O[C@@H]2[C@@H](O)[C@H](O[C@H]3OC(CN)=CC[C@H]3N)[C@@H](N)C[C@H]2N)OC[C@]1(C)O` [SISOMICIN], for which the IC50 result is “Not Active” and the Ki entry was “Not Active”.

For a further test, the target named is T6, Interstitial collagenase (Homo sapiens, UniProt P03956).
T6 sequence (P03956 whole entry): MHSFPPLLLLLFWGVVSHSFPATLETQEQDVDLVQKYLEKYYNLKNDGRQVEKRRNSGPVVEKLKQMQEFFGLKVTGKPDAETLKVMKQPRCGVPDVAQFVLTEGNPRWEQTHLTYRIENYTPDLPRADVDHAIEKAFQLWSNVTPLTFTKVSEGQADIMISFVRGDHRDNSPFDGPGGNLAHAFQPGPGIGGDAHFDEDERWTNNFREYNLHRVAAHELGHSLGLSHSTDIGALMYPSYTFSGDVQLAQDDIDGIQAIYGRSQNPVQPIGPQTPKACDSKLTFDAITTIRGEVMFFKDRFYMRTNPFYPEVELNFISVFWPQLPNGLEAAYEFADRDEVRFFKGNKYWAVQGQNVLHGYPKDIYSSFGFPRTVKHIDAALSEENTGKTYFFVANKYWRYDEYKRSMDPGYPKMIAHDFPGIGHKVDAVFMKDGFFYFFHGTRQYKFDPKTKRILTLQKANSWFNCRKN
Assay: not given
The format is tissue-based, Rheumatoid synovial fibroblasts.
Settings: not given
Regarding `CN[C@@H]1[C@@H](O)[C@@H](O[C@@H]2[C@@H](O)[C@H](O[C@H]3OC(CN)=CC[C@H]3N)[C@@H](N)C[C@H]2N)OC[C@]1(C)O` [SISOMICIN], the IC50 result is reported as “Not Active”.

In a further test the target is Mitogen-activated protein kinase 1 (Homo sapiens, UniProt P28482). The test can be described thus: DRUGMATRIX: Protein Serine/Threonine Kinase, ERK2 enzyme inhibition (substrate: Myelin Basic Protein). More on the design: species or system Escherichia coli. The settings on record: Not Active = under 50% inhibition at 10 µM.
Mitogen-activated protein kinase 1, sequence (P28482 whole entry): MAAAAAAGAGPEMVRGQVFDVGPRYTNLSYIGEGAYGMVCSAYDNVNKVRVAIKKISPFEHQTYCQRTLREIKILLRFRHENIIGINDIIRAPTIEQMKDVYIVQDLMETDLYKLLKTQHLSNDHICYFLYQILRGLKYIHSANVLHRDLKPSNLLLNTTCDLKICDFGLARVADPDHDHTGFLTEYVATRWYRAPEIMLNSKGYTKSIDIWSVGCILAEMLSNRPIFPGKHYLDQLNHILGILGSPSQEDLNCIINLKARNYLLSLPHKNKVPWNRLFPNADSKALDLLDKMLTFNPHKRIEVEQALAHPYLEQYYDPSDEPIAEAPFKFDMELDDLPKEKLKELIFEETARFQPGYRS
Consider `CN[C@@H]1[C@@H](O)[C@@H](O[C@@H]2[C@@H](O)[C@H](O[C@H]3OC(CN)=CC[C@H]3N)[C@@H](N)C[C@H]2N)OC[C@]1(C)O` [SISOMICIN], for which the IC50 result is given as “Not Active”.

In the next test the target is T7, Adenosine receptor A3 (Homo sapiens, UniProt P0DMS8).
T7 sequence (P0DMS8 whole entry): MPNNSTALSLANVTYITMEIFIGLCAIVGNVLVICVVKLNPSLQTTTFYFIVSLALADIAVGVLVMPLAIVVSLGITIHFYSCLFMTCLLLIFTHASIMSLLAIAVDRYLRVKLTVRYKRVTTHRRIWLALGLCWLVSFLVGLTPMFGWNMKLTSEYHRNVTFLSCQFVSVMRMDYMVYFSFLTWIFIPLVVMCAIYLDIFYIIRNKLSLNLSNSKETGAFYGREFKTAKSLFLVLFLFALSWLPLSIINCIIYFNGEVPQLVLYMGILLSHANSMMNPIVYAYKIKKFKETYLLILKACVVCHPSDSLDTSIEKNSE
Assay: not given
The format is cell membranes, CHO-K1, Membrane. The settings on record: cho-k1.
Consider `CN[C@@H]1[C@@H](O)[C@@H](O[C@@H]2[C@@H](O)[C@H](O[C@H]3OC(CN)=CC[C@H]3N)[C@@H](N)C[C@H]2N)OC[C@]1(C)O` [SISOMICIN], for which the IC50 result is “Not Active”.
